From patent US7030123B2, “Indole derivatives with vascular damaging activity” (AstraZeneca AB, priority 2000, dated 2006)
Each block holds one molecule with its values, some of them ahead of it.

How the values were obtained:
[1] = Dark et al 1997 Cancer Research 57, 1829-1834; cited from earlier work
[2] = system: colchicine binding site on tubulin (purified tubulin protein from bovine brain); assay: Colchicine binding site competitive assay; settings: dose of compound of 10 μM; relative to DMSO negative control
Experimental: (i) Colchicine Binding Site Competitive Assay Kit.
The ability of a ligand to bind specifically to the coichicine binding site on tubulin, an indicator of the vascular damaging activity, was assessed using a size exclusion chromatography assay kit from “Cytoskeleton” (1650 Fillmore St. #240, Denver, Colo. 80206, U.S.A.) Catalogue number of kit: BK023.
The following reagents were used: • tubulin buffer, to give 0.1 mM GTP, 0.5 mM MgCl2, 0.5 mM EGTA, 40 mM PIPES buffer at pH6.9 in the final reaction mix; • purified tubulin protein from bovine brain at 1 mg/ml in tubulin buffer; • 0.02 mM fluorescent coichicine in tubulin buffer [FITC (fluorescein isothiocyanate)-labelled]; • 2 mM colchicine in tubulin buffer; • 0.2 mM vinblastine in tubulin buffer; and • G-25 Sephadex™ Fine-particle size 34-138 μm.
The reaction was performed as follows: • 8 μl of test compound (dissolved in DMSO) was gently mixed with 150 μl of tubulin. This was then incubated at 37° C. for 30 minutes. […]
Chromatography was performed as follows, using chromatography columns filled with 3 mls of G-25 Sephadex™ Fine slurry. […] The fluorescence of the tubulin-containing fractions was detected on a spectrophotometer which excites at 485 nm and emits at 535 nm. […]
The degree of competition of colchicine binding by either unlabelled colchicine or test compound was calculated relative to the DMSO negative control.

[3] = system: HUVECs (Human umbilical cord vein endothelial cells); assay: HUVEC detachment assay; assay type: cell-based; settings: for activity in the HUVEC cell detachment assay (detachment): dose of compound of 100 μM, 40 minutes, versus undosed control wells
From the text: (ii) HUVEC Detachment Assay
Compounds according to the invention are expected to be able to damage vasculature, such as tumour vasculature, that has been newly formed whilst leaving normal, mature vasculature unaffected. The identification of compounds which can selectively, and preferably potently, damage newly-formed vasculature is desirable and is the subject of the present invention. The ability of the compounds to act in this way may be assessed, for example, using the procedure set out below:
This assay examined the effects of compounds on the adherence of HUVECs (Human umbilical cord vein endothelial cells) to tissue culture plasticware.
HUVECs (supplied by TCS Biologicals Ltd, Buckingham, United Kingdom) were plated in 0.2% gelatin-coated 12 well tissue culture plates at a concentration of 3×10^4 cells per well in 1 ml TCS medium. After 24 hours, when the cells were at ˜30% confluency, they were dosed with a compound under test for 40 minutes at 37° C., 5% CO2. After this incubation the medium containing drug was pipetted off, and the cells were then gently washed in 2 mls of HBSS (Hanks' Balanced Salt Solution purchased from Life Technologies Ltd, Paisley UK; Catalogue # 24020-083) to remove any detached cells. The washing solution was then removed, and the adherent cells remaining were trypsinised using 300 μl of 1×Trypsin-EDTA solution (Life Technologies Ltd, Paisley, UK; Catalogue # 43500-019) at ambient temperature for 2 minutes. The trypsinised cells were then made up to 1 ml with TCS Biologicals medium, then centrifuged at 2000 rpm for 2 minutes. The cell pellet was then resuspended in a volume of 50 μl of TCS Biologicals medium. Total cell counts were obtained by counting the cells on a haemocytometer. The amount of cell detachment was calculated by comparing the number of cells remaining attached following treatment with the number in undosed control wells.

melting point: 169 to 173 °C
Compound: COc1ccc(Sc2ccc3[nH]c(N)c(C#N)c3c2)cc1OC [Example 3, 5-(3,4-Dimethoxyphenylsulphanyl)-2-amino-1H-indole-3-carbonitrile]

activity in the colchicine binding site competitive assay (competition) [2]: 36%
melting point: 241 to 242 °C
Compound: N#Cc1c(N)[nH]c2ccc(Sc3ccc(O)cc3)cc12 [Example 2, 5-(4-Hydroxyphenylsulphanyl)-2-amino-1H-indole-3-carbonitrile]
activity in the HUVEC cell detachment assay (detachment) [3]: 55%

melting point: 208 to 209 °C
Compound: COc1cc(Oc2ccc3[nH]c(N)c(C#N)c3c2)cc(OC)c1OC [Example 11, 5-(3,4,5-Trimethoxyphenoxy)-2-amino-1H-indole-3-carbonitrile]

melting point: 216 to 217 °C
Compound: COc1ccc(Oc2ccc3[nH]c(N)c(C#N)c3c2)cc1 [Example 9, 5-(4-Methoxyphenoxy)-2-amino-1H-indole-3-carbonitrile]

The remaining lines, values behind:

Compound: COc1ccc(/C=C\c2cc(OC)c(OC)c(OC)c2)cc1O [Combretastatin A4]
anti-vascular effects at doses below the MTD [1]: greater than 10 times less than the MTD

Compound: CC(=O)O[C@H]1C(=O)[C@@]2(C)[C@H]([C@H](OC(=O)c3ccccc3)[C@]3(O)C[C@H](OC(=O)[C@H](O)[C@@H](NC(=O)c4ccccc4)c4ccccc4)C(C)=C1C3(C)C)[C@]1(OC(C)=O)CO[C@@H]1C[C@@H]2O [Taxol, reference compound]
cell detachment in the HUVEC detachment assay [3]: does not cause cell detachment

Compound: Cc1cc2[nH]c(N)c(C#N)c2cc1F [Example 8, 6-methyl-5-fluoro-2-amino-1H-indole-3-carbonitrile]
activity in the colchicine binding site competitive assay (competition) [2]: 31%
activity in the HUVEC cell detachment assay (detachment) [3]: 34%

Compound: CC[C@]1(O)C[C@H]2CN(CCc3c([nH]c4ccccc34)[C@@](C(=O)OC)(c3cc4c(cc3OC)N(C=O)[C@H]3[C@@](O)(C(=O)OC)[C@H](OC(C)=O)[C@]5(CC)C=CCN6CC[C@]43[C@@H]65)C2)C1 [vincristine]
doses at which vascular damaging activity is elicited, relative to the maximum tolerated dose (MTD) [1]: only elicit vascular damaging activity at doses approaching the maximum tolerated dose

Compound: COc1cc2c(c(OC)c1OC)-c1ccc(OC)c(=O)cc1[C@@H](NC(C)=O)CC2 [colchicine]
doses at which vascular damaging activity is elicited, relative to the maximum tolerated dose (MTD) [1]: only elicit vascular damaging activity at doses approaching the maximum tolerated dose
